Reference: patent US12440479B2, “Prevention or treatment of chronic organ injury” (GEORG-AUGUST-UNIVERSITAET GOETTINGEN, STIFTUNG …, priority 2018, dated 2025)

Tests used:
ARNT, ALK3, pSmad1/5/8 = experiment: Kidney allograft biopsies of transplant recipients (immunolabelling, qRT-PCR); type: in vivo, human; settings: FK506-based immunosuppressive regimen as compared to CsA
Protocol: The use of parts of human specimens for research purposes as approved by the Ethics Committee of the University Medicine Göttingen, clinical data are presented in Table 6.
Paraffin-embedded specimens were deparaffinized in xylene and rehydrated in ethanol containing distilled water. Tissue sections were stained using polyclonal antibodies against ALK3 (sc-20736, Santa Cruz Biotechnology, Dallas, USA) and ARNT (3718S, Cell Signaling, Danvers, USA), peroxidase labeling was performed using Vectastain Universal Elite ABC Kit (Vector Laboratories, Burlingame, USA) according to the manufacturer's protocol. AEC Substrate-Chromogen (Dako, Glostrup, Denmark) was applied for peroxidase visualization according to the manufacturer's protocol. Nuclear counterstain was performed by using Mayer's Hematoxylin Solution (Sigma, St. Louis, USA). […]
For SYBR-based real-time PCR, cDNA synthesis was performed by using DNase I digestion (Invitrogen, Carlsbad, USA) and SuperScript II Reverse Transcriptase (Invitrogen, Carlsbad, USA) according to the manufacturer's protocol. […] The relative expression levels were calculated using the equation 2^−ddCt.

murine TECs = experiment: Murine TEC cultures (MCT): mRNA expression (qRT-PCR), pSmad1/5/8 immunostaining, proliferation; type: cell-based, mouse
Protocol: HK-2 (ATTC, Manassas, USA) are immortalized proximal tubule epithelial cells derived from normal adult human kidney. The murine proximal tubular epithelial cell line MCT was generated from the renal cortex of SJL mice (75). All cells were routinely tested negative for the presence of mycoplasma contamination. None of the cell lines used in this manuscript is listed in the ICLAC and NCBI Biosample database of misidentified cell lines. Cells were cultured in Dulbecco's modified Eagle's (DMEM, Gibco, Carlsbad, USA) medium supplemented with 100 µg/mL penicillin, 100 µg/mL streptomycin and 10% heat-inactivated fetal bovine serum (FBS, Sigma, St. Louis, USA) at 37° C. in 5% CO2. For RNA extractions, cells were seeded in 6 well culture plates at 10^5 cells per well in antibiotic free standard growth medium. […] Cells were harvested for further analysis 6 hours after incubation. To examine de novo protein syntheses, cells were again plated in 6 well culture plates as initially described and then pre-treated with the translation blocker Cycloheximide (CHX, 10 μg/mL, Sigma, St. Louis, USA). After one hour of incubation, 200 pM FK506 was applied for additional 6 hours. One night before transfection, MCT cells were seeded in 6 well culture plates at a concentration of 1.5-2×10^5 per well in antibiotic-free DMEM (Gibco, Carlsbad, USA) supplemented with 10% heat-inactivated fetal bovine serum (FBS, Sigma, St. Louis, USA). For knockdown experiments, 60 pmol siRNA (Santa Cruz Biotechnology, Dallas, USA) or scrambled siRNA (scrRNA, Santa Cruz Biotechnology, Santa Cruz, USA) was transfected, for over-expression experiments, 2 μg plasmid DNA was transfected using Lipofectamine 2000 reagent (Invitrogen, Carlsbad, USA). After 4 hours of incubation, transfection medium was replaced by antibiotic-free medium and cells recovered overnight. For stimulation experiments, cells were stimulated the day after with […] FK506 (Abcam Biochemicals, Cambridge, UK) dissolved in DMSO and harvested after 6 hours of incubation for RNA and protein analysis. For SYBR-based real-time PCR, cDNA synthesis was performed by using DNase I digestion (Invitrogen, Carlsbad, USA) and SuperScript II Reverse Transcriptase (Invitrogen, Carlsbad, USA) according to the manufacturer's protocol. 1 μL of reverse-transcribed cDNA was added to the reaction mixture containing the primer pair (200 nmol/L each) and diluted 2× Fast SYBR Green Master Mix (Applied Biosystems, Carlsbad, USA) in a final volume of 20 μL for each PCR reaction. The real-time PCR reactions were performed in a 96-well reaction plate using the StepOne Plus Real-Time System (Applied Biosystems, Carlsbad, USA) and were done in triplicates. An initiation step at 95° C. for 20 seconds was followed by 40 cycles at 95° C. for 3 to seconds and 60° C. for 30 seconds, with one cycle of dissociation at 95° C. for 15 seconds, 60° C. for 60 seconds, and 95° C. for 15 seconds. The intercalation of SYBR Green dye and its fluorescent signal is directly proportional to the amount of amplified DNA and was transformed into the cycle threshold (Ct). For normalization, the Ct values of the housekeeping genes Gapdh and Actb were subtracted from the Ct values of the gene of interest to generate the dCt values. The relative expression levels were calculated using the equation 2^−ddCt.

Q: How did the “immunolabelling of ARNT, ALK3 and pSmad1/5/8” value (ARNT, ALK3, pSmad1/5/8) turn out when `C=CC[C@@H]1/C=C(\C)C[C@H](C)C[C@H](OC)[C@H]2O[C@@](O)(C(=O)C(=O)N3CCCC[C@H]3C(=O)O[C@H](/C(C)=C/[C@@H]3CC[C@@H](O)[C@H](OC)C3)[C@H](C)[C@@H](O)CC1=O)[C@H](C)C[C@@H]2OC` [FK506, tacrolimus] was run?
A: Its value is “significantly increased”.

Q: And the “intrarenal ARNT and ALK3 mRNA expression levels” value (ARNT, ALK3, pSmad1/5/8)?
A: The value was “Transcriptional induction”.

Q: What about the “induction of ALK3 transcription” value (murine TECs; TECs depleted for HIF1α (Hif1akd) or AHR (Ahrkd)) of the same compound?
A: Its value is “preserved effectiveness”.

Q: And the “mRNA expression levels of AR, ARNT, CEBPB, CREB1, GATA3, MAX (qRT-PCR)” value (murine TECs; TECs upon exposure to FK506)?
A: The value was “increased”.

Q: What about the “ALK3 transcription or nuclear pSmad1/5/8 accumulation” value (murine TECs; TECs with ARNT depleted (Arntkd)) of the same compound?
A: The value was “failed to induce”.

Q: And the “ALK3 transcription and canonical BMP signaling responses (nuclear pSmad1/5/8)” value (murine TECs; TECs with Cycloheximide (CHX, 10 μg/mL))?
A: The value was “failed to induce”.

Q: And the “ARNT mRNA and protein levels” value (murine TECs; TECs with FKBP12 or YY1 depletion, FK506 supplemented)?
A: Its value is “did not additionally induce”.

Q: And the “ALK3 transcription and BMP signaling responses” value (murine TECs; TECs with YY1 depleted (Yy1kd), FK506 supplemented)?
A: The value was “did not additionally induce”.

Q: And the ARNT transcription (murine TECs; cultured TECs, FK506 added to culture media)?
A: The ARNT transcription was “transcriptional ARNT induction”.

Q: What about the pSmad1/5/8 (murine TECs; murine TECs) of the same compound?
A: The pSmad1/5/8 was “accumulation of pSmad1/5/8”.
